From PubChem BioAssay (NCI)
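Each compound was tested at five concentrations against cells in 96-well plates for 48 hours. GI50 is the concentration that inhibits growth by half. TGI denotes the concentration required for complete inhibition of growth.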

Legend:
Test in all cases: inhibition of tumour cell growth, NCI panel, 48 h
SNB-19 CNS = test system: SNB-19 CNS
MDA-MB-231 breast = test system: MDA-MB-231 breast
MCF7 breast = test system: MCF7 breast
NCI-H460 lung = test system: NCI-H460 lung
HL-60(TB) leukemia = test system: HL-60(TB) leukemia
A498 renal = test system: A498 renal
A549 NSCLC = test system: A549 NSCLC
MOLT-4 leukemia = test system: MOLT-4 leukemia
SF-295 CNS = test system: SF-295 CNS
T-47D breast = test system: T-47D breast

**Q.** Which results are given for CN1c2ccccc2C(C)(C)C12C=Cc1cc(O)ccc1O2 (stereo unspecified)?
**A.** GI50 (SNB-19 CNS): 2.94 µM; TGI (SNB-19 CNS): 8.46 µM; GI50 (MDA-MB-231 breast): 3.93 µM; TGI (MDA-MB-231 breast): 16.3 µM; GI50 (MCF7 breast): 3.52 µM; GI50 (NCI-H460 lung): 2.28 µM; TGI (NCI-H460 lung): 6.45 µM; GI50 (HL-60(TB) leukemia): 1.89 µM; TGI (HL-60(TB) leukemia): 11.8 µM; GI50 (A498 renal): 2.39 µM; TGI (A498 renal): 6.3 µM; GI50 (A549 NSCLC): 4.46 µM; TGI (A549 NSCLC): 19.9 µM; GI50 (MOLT-4 leukemia): 4.5 µM; TGI (MOLT-4 leukemia): > 100 µM; GI50 (SF-295 CNS): 2.71 µM; TGI (SF-295 CNS): 12.8 µM; GI50 (T-47D breast): 4 µM; TGI (T-47D breast): 16.9 µM

**Q.** Which results are given for N#CSCC1CC(O)(c2ccccc2)CC(c2ccc(F)cc2)O1 (stereo unspecified)?
**A.** GI50 (SNB-19 CNS): 4.14 µM; TGI (SNB-19 CNS): 13.7 µM; GI50 (MDA-MB-231 breast): 1.97 µM; TGI (MDA-MB-231 breast): 4.2 µM; GI50 (MCF7 breast): 2.64 µM; TGI (MCF7 breast): 8.33 µM; GI50 (NCI-H460 lung): 2.08 µM; TGI (NCI-H460 lung): 4.34 µM; GI50 (A498 renal): 1.9 µM; TGI (A498 renal): 4.1 µM; GI50 (A549 NSCLC): 3.86 µM; TGI (A549 NSCLC): 18.5 µM; GI50 (MOLT-4 leukemia): 0.674 µM; TGI (MOLT-4 leukemia): 3.51 µM; GI50 (SF-295 CNS): 1.64 µM; TGI (SF-295 CNS): 3.34 µM; GI50 (T-47D breast): 1.78 µM; TGI (T-47D breast): 4.98 µM

**Q.** What does the source list for O=C(NCc1ccc(Cn2c(=O)sn(-c3ccccc3)c2=O)cc1)OCc1ccc2c(Br)cc(Br)c(O)c2n1?
**A.** GI50 (SNB-19 CNS): 1.55 µM; TGI (SNB-19 CNS): 2.9 µM; GI50 (MDA-MB-231 breast): 1.18 µM; TGI (MDA-MB-231 breast): 2.53 µM; GI50 (MCF7 breast): 0.399 µM; TGI (MCF7 breast): 1.96 µM; GI50 (NCI-H460 lung): 1.48 µM; TGI (NCI-H460 lung): 3.37 µM; GI50 (HL-60(TB) leukemia): 0.659 µM; TGI (HL-60(TB) leukemia): > 20.3 µM; GI50 (A498 renal): 1.53 µM; TGI (A498 renal): 2.9 µM; GI50 (A549 NSCLC): 1.51 µM; TGI (A549 NSCLC): 3.78 µM; GI50 (MOLT-4 leukemia): 0.503 µM; TGI (MOLT-4 leukemia): > 22.3 µM; GI50 (SF-295 CNS): 1.6 µM; TGI (SF-295 CNS): 3.06 µM; GI50 (T-47D breast): 1.71 µM; TGI (T-47D breast): 5.66 µM

**Q.** Which GI50 (SNB-19 CNS) does the source give for COc1ccc(Nc2c3ccccc3nc3ccccc23)cc1 here?
**A.** The GI50 was 3.19 µM.

**Q.** What about the TGI (SNB-19 CNS) of the same compound?
**A.** Its TGI is 18.3 µM.

**Q.** And the GI50 (MDA-MB-231 breast)?
**A.** Its GI50 is 2.58 µM.

**Q.** And the TGI (MDA-MB-231 breast)?
**A.** The TGI was 19.3 µM.

**Q.** And the GI50 (MCF7 breast)?
**A.** The GI50 was 0.409 µM.

**Q.** And the TGI (MCF7 breast)?
**A.** The TGI was 13 µM.

**Q.** What about the GI50 (NCI-H460 lung) of the same compound?
**A.** The GI50 was 0.479 µM.

**Q.** What about the TGI (NCI-H460 lung) of the same compound?
**A.** The TGI was 6.2 µM.

**Q.** And the GI50 (HL-60(TB) leukemia)?
**A.** Its GI50 is 1.69 µM.

**Q.** And the TGI (HL-60(TB) leukemia)?
**A.** The TGI was 4.1 µM.

**Q.** And the GI50 (A498 renal)?
**A.** Its GI50 is 0.421 µM.

**Q.** And the TGI (A498 renal)?
**A.** The TGI was 10.5 µM.

**Q.** And the GI50 (A549 NSCLC)?
**A.** The GI50 was 0.809 µM.

**Q.** What about the TGI (A549 NSCLC) of the same compound?
**A.** The TGI was 11 µM.

**Q.** What about the GI50 (MOLT-4 leukemia) of the same compound?
**A.** The GI50 was 0.59 µM.

**Q.** And the TGI (MOLT-4 leukemia)?
**A.** The TGI was 3.39 µM.

**Q.** And the GI50 (SF-295 CNS)?
**A.** The GI50 was 0.904 µM.

**Q.** And the TGI (SF-295 CNS)?
**A.** The TGI was 10.4 µM.

**Q.** What about the GI50 (T-47D breast) of the same compound?
**A.** The GI50 was 2.37 µM.

**Q.** And the TGI (T-47D breast)?
**A.** Its TGI is 14.3 µM.

**Q.** How did the GI50 (SNB-19 CNS) turn out when Nc1nc(-c2ccccc2)nc(N)c1N=O was run?
**A.** Its GI50 is 14.4 µM.

**Q.** What about the TGI (SNB-19 CNS) of the same compound?
**A.** The TGI was 33 µM.

**Q.** What about the GI50 (MDA-MB-231 breast) of the same compound?
**A.** The GI50 was 12.6 µM.

**Q.** And the TGI (MDA-MB-231 breast)?
**A.** The TGI was 28.9 µM.

**Q.** What about the GI50 (MCF7 breast) of the same compound?
**A.** Its GI50 is 5.85 µM.

**Q.** And the TGI (MCF7 breast)?
**A.** The TGI was 27.1 µM.

**Q.** And the GI50 (NCI-H460 lung)?
**A.** The GI50 was 8.02 µM.

**Q.** And the TGI (NCI-H460 lung)?
**A.** The TGI was 27.9 µM.

**Q.** What about the GI50 (HL-60(TB) leukemia) of the same compound?
**A.** Its GI50 is 19.2 µM.

**Q.** What about the TGI (HL-60(TB) leukemia) of the same compound?
**A.** The TGI was 88.9 µM.

**Q.** What about the GI50 (A498 renal) of the same compound?
**A.** The GI50 was 15.6 µM.

**Q.** What about the TGI (A498 renal) of the same compound?
**A.** The TGI was 30.6 µM.

**Q.** What about the GI50 (A549 NSCLC) of the same compound?
**A.** The GI50 was 8.86 µM.

**Q.** What about the TGI (A549 NSCLC) of the same compound?
**A.** Its TGI is 23.3 µM.

**Q.** What about the GI50 (MOLT-4 leukemia) of the same compound?
**A.** Its GI50 is 17.4 µM.

**Q.** And the TGI (MOLT-4 leukemia)?
**A.** Its TGI is > 100 µM.

**Q.** What about the GI50 (SF-295 CNS) of the same compound?
**A.** The GI50 was 18.1 µM.

**Q.** What about the TGI (SF-295 CNS) of the same compound?
**A.** The TGI was 52.9 µM.

**Q.** And the GI50 (T-47D breast)?
**A.** The GI50 was 4.63 µM.

**Q.** What about the TGI (T-47D breast) of the same compound?
**A.** The TGI was 23.1 µM.

**Q.** Which TGI (SNB-19 CNS) does the source give for O=C(NP(=O)(N1CC1)N1CC1)c1cc(I)ccc1I here?
**A.** The TGI was > 100 µM.

**Q.** What about the TGI (MDA-MB-231 breast) of the same compound?
**A.** The TGI was > 100 µM.

**Q.** What about the TGI (MCF7 breast) of the same compound?
**A.** The TGI was > 100 µM.

**Q.** What about the TGI (NCI-H460 lung) of the same compound?
**A.** Its TGI is > 79 µM.

**Q.** And the TGI (HL-60(TB) leukemia)?
**A.** The TGI was > 96.4 µM.

**Q.** What about the TGI (A498 renal) of the same compound?
**A.** The TGI was > 100 µM.

**Q.** And the TGI (A549 NSCLC)?
**A.** The TGI was > 100 µM.

**Q.** And the TGI (MOLT-4 leukemia)?
**A.** The TGI was > 100 µM.

**Q.** And the TGI (SF-295 CNS)?
**A.** The TGI was > 100 µM.

**Q.** What about the TGI (T-47D breast) of the same compound?
**A.** The TGI was > 100 µM.

**Q.** With c1cc(CNCCN2CCNCC2)ccn1 as the compound, how does the TGI (SNB-19 CNS) read?
**A.** The TGI was > 100 µM.

**Q.** And the TGI (MDA-MB-231 breast)?
**A.** Its TGI is > 100 µM.

**Q.** What about the TGI (MCF7 breast) of the same compound?
**A.** The TGI was > 100 µM.

**Q.** What about the TGI (NCI-H460 lung) of the same compound?
**A.** Its TGI is > 100 µM.

**Q.** And the TGI (A498 renal)?
**A.** Its TGI is > 100 µM.

**Q.** And the TGI (A549 NSCLC)?
**A.** Its TGI is > 100 µM.

**Q.** What about the TGI (MOLT-4 leukemia) of the same compound?
**A.** The TGI was > 100 µM.

**Q.** And the TGI (SF-295 CNS)?
**A.** The TGI was > 100 µM.

**Q.** What about the TGI (T-47D breast) of the same compound?
**A.** Its TGI is > 100 µM.
